Test results from patent publication US4327178A, “Urinary kallikrein assay: specific substrates and assay method” (University of Miami, priority 1981, dated 1982).
Values belong to the molecule of their own block, whether it stands above or below them. Where a SMILES comes first, the peptide text is derived from it. The star is where a group is joined. (3H)benzylamide = C-terminal benzylamide carrying tritium label; (3H)anilide = C-terminal anilide carrying tritium label; pNA = O=[N+]([O-])c1ccc(N*)cc1; Bz = O=C(c1ccccc1)*; X2 = Ic1cccc(CN*)c1; X3 = Ic1ccc(CN*)cc1; X1 = Ic1ccc(N*)cc1

Key:
Assay type in all cases: biochemical
[1] = target: purified urinary kallikrein (Homo sapiens, UniProt P06870); test: Urinary kallikrein-catalyzed hydrolysis of N-alpha-acylated substrates relative to non-acylated compounds; details: approximately 20 nM substrate, 60 ng purified urinary kallikrein, 100 μl 0.1 M tris HCl pH 9.5, 37° C., 15 minutes; conditions optimized for non-acylated substrate
human urinary kallikrein [2] = target: T1, human urinary kallikrein (Homo sapiens, UniProt P06870); test: Assay of human urinary kallikrein: suitability as substrate (in words)
T1 construct: dialyzed or gel-filtered human urine in the general A1 assay
Procedure: Human urine is treated to remove low molecular weight impurities, either by overnight dialysis against 0.9%(w/v) NaCl or by gel filtration. A typical reaction mixture may contain 50 μl dialyzed urine and 0.1 μCi of substrate at a final concentration of 20 ng/ml buffered with 0.1 M tris-HCl, pH 9.5, in a total reaction volume of 100 μl. Reaction tubes are incubated at 37° C. for two hours. Variations of incubation time and temperature for the purpose of increasing or decreasing the amount of product formed are known expedients within the scope of ordinary skill in the art. Reactions may be stopped by any technique which causes rapid termination of the enzyme-catalyzed reaction without significant alteration of the product concentration. Use of an excess volume of base, e.g., 1.0 ml of 0.1 NaOH, is preferred. The product is separated from the reaction mixture by extraction with a measured volume of an aprotic solvent such as toluene or ether, or by other suitable means such as ion-exchange chromatography. Where solvent extraction is employed, an aliquot of the solvent (containing reaction product) may be sampled for radioactivity counting. Scintillation counting is preferred for counting tritium, and use of an extracting solvent such as toluene or ether permits direct transfer of a solvent aliquot to the scintillation fluid.
A standard curve may be constructed substituting purified kallikrein for dialyzed urine. A unit of enzyme is defined herein as that amount required to hydrolyze substrate at an initial rate of 1% per minute at 37° C. The foregoing definition is applicable where the concentration of substrate is well below Km such that hydrolysis is first order with respect to substrate concentration. The number of kallikrein units/ml of dialyzed urine is given by [formula] where 1.0 ml of solvent is used for the extraction and an aliquot of 0.5 ml is taken for counting. The blank c.p.m. value is determined in a control reaction lacking enzyme but otherwise treated identically.

Trypsin = test: Reaction specificity: hydrolysis by serine proteases; details: 20 nM substrate, 0.1 M tris-HCl, 37° C., 15 minutes
Procedure: (§1) The hydrolysis of H-ProPheArg-[^3 H]benzylamide by a series of serine proteases was measured. Reactions were carried out using 20 nM substrate in 0.1 M tris-HCl buffer, pH 7.5 or pH 9.5, at 37° C. for 15 minutes in the presence of varied amounts of enzyme. The results are shown in Table 2, expressed as the amount of enzyme necessary to hydrolyze 10% of the substrate under the given conditions. "No hydrolysis" is used to denote no measureable reaction with a maximum of 0.5 mg/ml enzyme.

Plasmin = test: as above; details: 20 nM substrate, 0.1 M tris-HCl, 37° C., 15 minutes
Procedure: as §1

human urinary kallikrein [3] = target: T1, human urinary kallikrein; test: as above; details: 20 nM substrate, 0.1 M tris-HCl, 37° C., 15 minutes
Procedure: as §1

α-Chymotrypsin = test: as above; details: printed on the pH 9.5 line (pH 7.5 line blank); No hydrolysis = no measureable reaction with a maximum of 0.5 mg/ml enzyme; 20 nM substrate, 37° C., 15 minutes
Procedure: as §1

Thrombin = test: as above; details: printed on the pH 9.5 line (pH 7.5 line blank); No hydrolysis = no measureable reaction with a maximum of 0.5 mg/ml enzyme; 20 nM substrate, 37° C., 15 minutes
Procedure: as §1

Urokinase = test: as above; details: printed on the pH 9.5 line (pH 7.5 line blank); No hydrolysis = no measureable reaction with a maximum of 0.5 mg/ml enzyme; 20 nM substrate, 37° C., 15 minutes
Procedure: as §1

human urinary kallikrein [4] = target: T1, human urinary kallikrein; test: Km and Vmax of substrates with purified human urinary kallikrein (Lineweaver-Burk double reciprocal plot)
Procedure: The double reciprocal plot method of H. Lineweaver and D. Burk (J.Am.Chem.Soc. 56, 658 (1934)) was used to estimate Km and Vmax for these substrates. Purified human urinary kallikrein prepared as described by Oza, N. B. and Ryan, J., supra, was used in this study. Reactions were conducted at 37° C. for 15 minutes with 62.5 ng of enzyme and the indicated amount of substrate, in 0.05 M tris-HCl pH 9.5. Reactions were terminated by the addition of a nine-fold excess of 0.1 N NaOH. The ^3 H-labeled product was separated from substrate by extraction with an equal volume (1 ml) of toluene. A 0.5 ml aliquot of the toluene phase was transferred to a scintillation vial containing a toluene-based scintillation fluid and counted. Results for H-ProPheArg-[^3 H]-benzylamide are shown in FIG. 1, and for H-ProPheArg-[^3 H]anilide in FIG. 2. The units of l/v were nmol^-1 min. Units of l/S were μmole^-1.liter.

human urinary kallikrein [5] = target: T1, human urinary kallikrein; test: Relative activity of halogenated (4-iodoanilide) substrates, spectrophotometric standard assay; details: 150 nmol substrate in 0.7 ml 0.05 tris-HCl, pH 8.1, 37° C.
Procedure: Unlabeled halogenated 4-iodoanilide substrates, prepared essentially as described in Example 5, were compared with respect to reaction rate with human urinary kallikrein in a standard assay. Each substrate, 150 nmol, was incubated with purified human urinary kallikrein in 0.7 ml of 0.05 tris-HCl, pH 8.1 at 37° C. At timed intervals, 100 μl of reaction mixture was added to 1.0 ml of 0.1 N NaOH. The resulting solution was extracted with CHCl3 and the organic phase was evaporated to dryness. The residue was dissolved in buffer and examined spectrophotometrically in the 240-300 nm range, where a difference spectrum between substrate and product is measureable. The results are shown in Table 1, with rates of hydrolysis expressed as nmol/min/mg enzyme.

[6] = 62.5 ng purified enzyme, 0.05 M tris-HCl pH 9.5, 37° C., 15 minutes

T1 sequence (P06870 25-262): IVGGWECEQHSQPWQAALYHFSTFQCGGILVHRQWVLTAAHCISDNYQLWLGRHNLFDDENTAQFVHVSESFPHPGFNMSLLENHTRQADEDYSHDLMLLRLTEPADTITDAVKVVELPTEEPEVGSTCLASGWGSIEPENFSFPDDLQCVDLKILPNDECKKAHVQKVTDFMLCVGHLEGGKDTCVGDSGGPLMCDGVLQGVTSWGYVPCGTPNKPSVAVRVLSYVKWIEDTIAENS
Chain of purified urinary kallikrein (P06870 25-262): as above

Molecule: [3H]c1cccc(CNC(=O)[C@H](CCCNC(=N)N)NC(=O)[C@H](Cc2ccccc2)NC(=O)[C@@H]2CCCN2C(=O)c2ccccc2)c1 [Benzoyl-ProPheArg-[^3 H]benzylamide]
rate of hydrolysis relative to the non-acylated compounds [1]: about 1/2

Molecule: N=C(N)NCCC[C@H](NC(=O)[C@H](Cc1ccccc1)NC(=O)[C@@H]1CCCN1C(=O)[C@H](CO)NC(=O)[C@@H](N)Cc1ccccc1)C(=O)NCc1cccc(I)c1 [H-PheSerProPheArg-3-iodobenzylamide] (H-FSPFR-X2)
activity as substrate for human urinary kallikrein (in words) (human urinary kallikrein [2]): suitable substrates

Molecule: N=C(N)NCCC[C@H](NC(=O)[C@H](Cc1ccccc1)NC(=O)[C@@H]1CCCN1C(=O)[C@H](CO)NC(=O)[C@@H](N)Cc1ccccc1)C(=O)NCc1ccc(I)cc1 [H-PheSerProPheArg-4-iodobenzylamide] (H-FSPFR-X3)
activity as substrate for human urinary kallikrein (in words) (human urinary kallikrein [2]): suitable substrates

Molecule: [3H]c1cccc(CNC(=O)[C@H](CCCNC(=N)N)NC(=O)[C@H](Cc2ccccc2)NC(=O)[C@@H]2CCCN2)c1 [H-ProPheArg-[^3 H]benzylamide, H-ProPheArg-[^3 H] benzylamide]
Amount of Enzyme Required for 10% Hydrolysis (Trypsin; pH 7.5): 400 ng | Amount of Enzyme Required for 10% Hydrolysis (Trypsin; pH 9.5): 1,030 ng | Amount of Enzyme Required for 10% Hydrolysis (Plasmin; pH 7.5): 17,200 ng | Amount of Enzyme Required for 10% Hydrolysis (Plasmin; pH 9.5): 30,600 ng | Amount of Enzyme Required for 10% Hydrolysis (human urinary kallikrein [3]; pH 7.5): 265 ng | Amount of Enzyme Required for 10% Hydrolysis (human urinary kallikrein [3]; pH 9.5): 45 ng | Amount of Enzyme Required for 10% Hydrolysis (as enzyme concentration, in brackets) (human urinary kallikrein [3]; pH 9.5): 10 nM | Amount of Enzyme Required for 10% Hydrolysis (α-Chymotrypsin): No hydrolysis | Amount of Enzyme Required for 10% Hydrolysis (Thrombin): No hydrolysis | Amount of Enzyme Required for 10% Hydrolysis (Urokinase): No hydrolysis | Km (human urinary kallikrein [4]; [6]): 3 µM | Vmax (human urinary kallikrein [4]; [6]): 0.88 mmol/min/mg protein

Molecule: N=C(N)NCCC[C@H](NC(=O)[C@H](Cc1ccccc1)NC(=O)[C@@H]1CCCN1C(=O)[C@@H](N)CO)C(=O)NCc1cccc(I)c1 [H-SerProPheArg-3-iodobenzylamide] (H-SPFR-X2)
activity as substrate for human urinary kallikrein (in words) (human urinary kallikrein [2]): suitable substrates

Molecule: N=C(N)NCCC[C@H](NC(=O)[C@@H](N)Cc1ccccc1)C(=O)Nc1ccc(I)cc1 [Phe--Arg--4-iodoanilide]
Rate of Hydrolysis (human urinary kallikrein [5]): Nil

Molecule: N=C(N)NCCC[C@H](NC(=O)[C@H](Cc1ccccc1)NC(=O)[C@@H]1CCCN1C(=O)[C@H](CO)NC(=O)[C@@H](N)Cc1ccccc1)C(=O)Nc1ccc(I)cc1 [Phe--Ser--Pro--Phe--Arg--4-iodoanilide] (H-FSPFR-X1)
Rate of Hydrolysis (human urinary kallikrein [5]): 1.12 nmol/min/mg enzyme

Molecule: N=C(N)NCCC[C@H](NC(=O)[C@H](Cc1ccccc1)NC(=O)[C@@H]1CCCN1)C(=O)Nc1ccc(I)cc1 [Pro--Phe--Arg--4-iodoanilide]
Rate of Hydrolysis (human urinary kallikrein [5]): 0.73 nmol/min/mg enzyme

Molecule: N=C(N)NCCC[C@H](NC(=O)[C@H](Cc1ccccc1)NC(=O)[C@@H]1CCCN1C(=O)[C@@H](N)CO)C(=O)Nc1ccc(I)cc1 [Ser--Pro--Phe--Arg--4-iodoanilide] (H-SPFR-X1)
Rate of Hydrolysis (human urinary kallikrein [5]): 0.62 nmol/min/mg enzyme

Molecule: N=C(N)NCCC[C@H](NC(=O)[C@H](Cc1ccccc1)NC(=O)[C@@H]1CCCN1C(=O)c1ccccc1)C(=O)Nc1ccc([N+](=O)[O-])cc1 [benzoyl-ProPheArg-p-nitroanilide, reference compound] (Bz-Pro-Phe-Arg-pNA)
activity as substrate for human urinary kallikrein (in words) (human urinary kallikrein [2]): inactive

The remaining lines, values ahead:

activity as substrate for human urinary kallikrein (in words) (human urinary kallikrein [2]): suitable substrates
Molecule: N=C(N)NCCC[C@H](NC(=O)[C@H](Cc1ccccc1)NC(=O)[C@@H]1CCCN1C(=O)[C@@H](N)CO)C(=O)NCc1ccc(I)cc1 [H-SerProPheArg-4-iodobenzylamide] (H-SPFR-X3)

rate of hydrolysis relative to the non-acylated compounds [1]: generally similar rates
Molecule: [3H]c1cccc(CNC(=O)[C@H](CCCNC(=N)N)NC(=O)[C@H](Cc2ccccc2)NC(=O)[C@@H]2CCCN2C(C)=O)c1 [acetylated]

rate of hydrolysis relative to the non-acylated compounds [1]: generally similar rates
Molecule: [3H]c1cccc(CNC(=O)[C@H](CCCNC(=N)N)NC(=O)[C@H](Cc2ccccc2)NC(=O)[C@@H]2CCCN2C(=O)C2CCCC2)c1 [cyclopentylcarbonylated]

rate of hydrolysis relative to the non-acylated compounds [1]: 1/10
Molecule: [3H]c1cccc(CNC(=O)[C@H](CCCNC(=N)N)NC(=O)[C@H](Cc2ccccc2)NC(=O)[C@@H]2CCCN2C(=O)CCC(=O)O)c1 [succinyl derivative, Succinyl-ProPheArg-[^3 H]benzylamide]

activity as substrate for human urinary kallikrein (in words) (human urinary kallikrein [2]): substrates
Molecule: H-PheSerProPheArg-[^3 H] anilide (H-FSPFR-{(3H)anilide})

activity as substrate for human urinary kallikrein (in words) (human urinary kallikrein [2]): suitable substrates
Molecule: H-PheSerProPheArg-[^3 H]benzylamide (H-FSPFR-{(3H)benzylamide})

activity as substrate for human urinary kallikrein (in words) (human urinary kallikrein [2]): excellent substrate | Vmax (human urinary kallikrein [4]; [6]): 0.39 mmol/min/mg protein | Km (human urinary kallikrein [4]; 62.5 ng purified enzyme, 0.05 M tris-HCl pH 9.5, 37° C., 15 minutes, listed as H-ProPheArg-[^3 H]-anilide): 0.8 µM | Km (human urinary kallikrein [4]; 62.5 ng purified enzyme, 0.05 M tris-HCl pH 9.5, 37° C., 15 minutes, listed as ProPheArg-[^3 H] anilide): ~0.8 µM | Vmax (human urinary kallikrein [4]; as summarised in the detailed description): approximately 0.39 mmol/min/mg
Molecule: H-ProPheArg-[^3 H]anilide

activity as substrate for human urinary kallikrein (in words) (human urinary kallikrein [2]): suitable substrates
Molecule: H-SerProPheArg-[^3 H]-benzylamide (H-SPFR-{(3H)benzylamide})

activity as substrate for human urinary kallikrein (in words) (human urinary kallikrein [2]): substrates
Molecule: H-SerProPheArg-[^3 H]anilide (H-SPFR-{(3H)anilide})
